# Values of other authors, collected in patent US8288412B2, “Compounds which have activity at M1 receptor and their uses in medicine” (Glaxo Group Limited, priority 2005, dated 2012).
# Assays:
# [1] = mice
# [2] = unilateral 6-OH-DA lesioned rats
# [3] = monkeys
# [4] = rats
compound,measurement,setting,value
CCCCCCOc1nsnc1C1=CCCN(C)C1 [xanomeline],apomorphine induced climbing,[1],reverses
same,dopamine agonist driven turning,[2],reverses
same,amphetamine-induced motor unrest,[3],reverses
same,"psychotic symptoms such as suspiciousness, hallucinations and delusions",Alzheimer's patients,reduce psychotic symptoms
same,side effects,patients,dose-limiting peripheral cholinergic side effects
same,amphetamine induced locomotion,[4],reverses
